Results on one compound are retold here after patent publication US4431636A, “Bis(4-O-polyhexaose-thio)-phenyl ureas and method of use” (American Cyanamid Company, priority 1982, dated 1984).

Where two headings read alike, the source gives them in different places.

In experiment [1] the test system is serum complement activity. Description: Guinea Pig Intraperitoneal Test (GPIP). The note with it: Cavia porcellus, ip, 200 mg/kg i.p. Type of experiment: in vivo. On the procedure: (§1) Percent inhibition is calculated by comparison with simultaneous controls.
For experiment [2], the system named is late components of human complement (C3-C9). The experiment can be described thus: Test Code 035 (C3-C9 inhibitor). Type of experiment: biochemical. The note with it: in vitro; lysis of EAC 142; serial twofold dilution assay, higher well number higher activity. The procedure: as §1
Experiment [3] deals with activated human C1 (Homo sapiens, UniProt P09871). The experiment can be described thus: Test Code 026 (C1 inhibitor). In kind it is biochemical. The note with it: in vitro; serial twofold dilution assay, higher well number higher activity. The procedure: as §1
Chain of activated human C1 (P09871 16-688): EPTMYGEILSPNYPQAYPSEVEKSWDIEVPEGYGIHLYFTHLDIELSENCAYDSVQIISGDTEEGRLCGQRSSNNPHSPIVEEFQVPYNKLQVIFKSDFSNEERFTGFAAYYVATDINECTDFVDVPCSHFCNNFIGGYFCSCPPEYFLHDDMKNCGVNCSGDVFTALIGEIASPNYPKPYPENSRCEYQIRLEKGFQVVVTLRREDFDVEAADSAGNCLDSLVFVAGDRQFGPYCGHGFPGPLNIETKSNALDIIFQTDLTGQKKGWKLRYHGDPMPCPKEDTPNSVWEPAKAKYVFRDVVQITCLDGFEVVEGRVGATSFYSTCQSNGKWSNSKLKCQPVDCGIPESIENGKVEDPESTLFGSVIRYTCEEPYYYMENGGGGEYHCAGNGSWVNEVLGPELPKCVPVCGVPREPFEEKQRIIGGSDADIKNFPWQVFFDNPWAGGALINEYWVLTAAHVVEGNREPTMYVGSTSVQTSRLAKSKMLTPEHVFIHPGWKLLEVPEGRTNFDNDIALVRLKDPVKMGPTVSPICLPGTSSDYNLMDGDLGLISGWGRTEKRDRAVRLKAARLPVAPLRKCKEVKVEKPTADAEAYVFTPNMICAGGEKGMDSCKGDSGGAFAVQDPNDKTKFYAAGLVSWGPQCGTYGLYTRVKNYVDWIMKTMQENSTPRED
Chain of activated human C1 (P00736 18-705 partner): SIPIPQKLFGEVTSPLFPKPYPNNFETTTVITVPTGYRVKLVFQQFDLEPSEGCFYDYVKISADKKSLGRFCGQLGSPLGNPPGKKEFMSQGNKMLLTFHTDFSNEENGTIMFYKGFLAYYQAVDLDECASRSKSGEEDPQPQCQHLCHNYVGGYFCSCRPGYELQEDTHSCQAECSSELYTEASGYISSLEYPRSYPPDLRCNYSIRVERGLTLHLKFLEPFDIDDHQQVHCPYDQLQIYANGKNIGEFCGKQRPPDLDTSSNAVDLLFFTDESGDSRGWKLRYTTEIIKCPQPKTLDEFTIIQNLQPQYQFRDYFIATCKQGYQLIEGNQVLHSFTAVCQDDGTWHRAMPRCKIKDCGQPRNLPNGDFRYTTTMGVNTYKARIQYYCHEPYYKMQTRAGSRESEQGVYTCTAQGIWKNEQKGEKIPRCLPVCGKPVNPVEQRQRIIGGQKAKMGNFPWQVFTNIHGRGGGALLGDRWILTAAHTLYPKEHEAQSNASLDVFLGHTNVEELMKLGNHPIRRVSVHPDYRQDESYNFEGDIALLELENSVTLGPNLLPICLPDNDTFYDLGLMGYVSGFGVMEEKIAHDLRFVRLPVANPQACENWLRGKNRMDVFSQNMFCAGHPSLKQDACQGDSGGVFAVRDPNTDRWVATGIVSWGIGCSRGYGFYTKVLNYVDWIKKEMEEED
Chain of activated human C1 (P02745 23-245 partner): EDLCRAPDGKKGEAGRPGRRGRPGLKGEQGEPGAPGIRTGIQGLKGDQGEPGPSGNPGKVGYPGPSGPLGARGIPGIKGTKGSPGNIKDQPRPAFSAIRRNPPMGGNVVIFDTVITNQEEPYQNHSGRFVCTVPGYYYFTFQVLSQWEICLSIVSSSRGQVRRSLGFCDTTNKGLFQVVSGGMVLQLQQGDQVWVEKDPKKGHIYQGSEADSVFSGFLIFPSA
Chain of activated human C1 (P02746 28-253 partner): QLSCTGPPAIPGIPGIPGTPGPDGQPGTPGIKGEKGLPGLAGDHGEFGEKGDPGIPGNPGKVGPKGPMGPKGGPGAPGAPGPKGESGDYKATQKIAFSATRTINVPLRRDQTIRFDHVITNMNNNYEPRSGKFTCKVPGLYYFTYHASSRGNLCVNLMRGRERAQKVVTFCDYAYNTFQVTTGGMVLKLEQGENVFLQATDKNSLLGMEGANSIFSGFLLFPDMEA
Chain of activated human C1 (P02747 29-245 partner): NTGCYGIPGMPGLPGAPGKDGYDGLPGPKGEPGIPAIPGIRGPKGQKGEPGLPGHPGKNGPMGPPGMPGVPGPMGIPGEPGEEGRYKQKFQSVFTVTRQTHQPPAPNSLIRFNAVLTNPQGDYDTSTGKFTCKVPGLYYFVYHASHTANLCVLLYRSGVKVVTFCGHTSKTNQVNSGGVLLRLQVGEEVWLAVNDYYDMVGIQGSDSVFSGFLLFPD

`O=C(Nc1ccc(S[C@@H]2O[C@H](COS(=O)(=O)O)[C@@H](O[C@H]3O[C@H](COS(=O)(=O)O)[C@@H](OS(=O)(=O)O)[C@H](OS(=O)(=O)O)[C@H]3OS(=O)(=O)O)[C@H](OS(=O)(=O)O)[C@H]2OS(=O)(=O)O)cc1)Nc1ccc(S[C@@H]2O[C@H](COS(=O)(=O)O)[C@@H](O[C@H]3O[C@H](COS(=O)(=O)O)[C@@H](OS(=O)(=O)O)[C@H](OS(=O)(=O)O)[C@H]3OS(=O)(=O)O)[C@H](OS(=O)(=O)O)[C@H]2OS(=O)(=O)O)cc1.[Na].[Na].[Na].[Na].[Na].[Na].[Na].[Na].[Na].[Na].[Na].[Na].[Na].[Na]` [Tetradecasodium N,N'-bis[4-[[2,3,6-tri-O-sulfo-4-O-(2,3,4,6-tetra-O-sulfo-α-D-glucopyranosyl)-β-D-glucopyranosyl]thio]phenyl]urea]: the inhibition (commonly the change of the read-out against control, counted positive when it falls) at 200 mg/kg in experiment [1] (serum taken 2 hours after injection, read-out: In vivo Activity (Guinea Pig % Inhibition) (Intraperitoneal) Time 2 Hours) was 90%; in experiment [1] (serum taken 6 hours after injection, read-out: In vivo Activity (Guinea Pig % Inhibition) (Intraperitoneal) Time 6 Hours) it was 91%; in experiment [1] (serum taken 24 hours after injection, read-out: In vivo Activity (Guinea Pig % Inhibition) (Intraperitoneal) Time 24 Hours), 58%. Moreover, in experiment [2], the “C-Late 035 Wells” value came out at 2 Wells. The “C-1 026 Wells” value in experiment [3] worked out at 11 Wells.
